From PubChem BioAssay AID1259407 (Chemical Carcinogenesis Research Information System (CCRIS), 2018) come the findings set out here.

Calls of active or inactive are those of the source. The rule behind the calls is not given here.

The series relates to CCRIS mutagenicity, Ames/micronucleus/aberration tests. Description: CCRIS mutagenicity studies.
Where [1] appears, read: Test System: AMES SALMONELLA TYPHIMURIUM, Strain/Indicator: TA98, Metabolic Activation: NONE, Method: STANDARD PLATE.
Setting [2] is: Test System: AMES SALMONELLA TYPHIMURIUM, Strain/Indicator: TA98, Metabolic Activation: RAT, LIVER, S-9, AROCLOR 1254, Method: STANDARD PLATE.
The mark [3] stands for this setting: Test System: AMES SALMONELLA TYPHIMURIUM, Strain/Indicator: TA100, Metabolic Activation: NONE, Method: STANDARD PLATE.
Where [4] appears, read: Test System: AMES SALMONELLA TYPHIMURIUM, Strain/Indicator: TA100, Metabolic Activation: RAT, LIVER, S-9, AROCLOR 1254, Method: STANDARD PLATE.
[5] abbreviates: Test System: AMES SALMONELLA TYPHIMURIUM, Strain/Indicator: TA98, Metabolic Activation: HAMSTER, LIVER, S-9, AROCLOR 1254, Method: PREINCUBATION
Where [6] appears, read: Test System: AMES SALMONELLA TYPHIMURIUM, Strain/Indicator: TA98, Metabolic Activation: NONE, Method: PREINCUBATION
The mark [7] stands for this setting: Test System: AMES SALMONELLA TYPHIMURIUM, Strain/Indicator: TA98, Metabolic Activation: RAT, LIVER, S-9, AROCLOR 1254, Method: PREINCUBATION
[8] abbreviates: Test System: AMES SALMONELLA TYPHIMURIUM, Strain/Indicator: TA100, Metabolic Activation: HAMSTER, LIVER, S-9, AROCLOR 1254, Method: PREINCUBATION
[9] abbreviates: Test System: AMES SALMONELLA TYPHIMURIUM, Strain/Indicator: TA100, Metabolic Activation: NONE, Method: PREINCUBATION
The mark [10] stands for this setting: Test System: AMES SALMONELLA TYPHIMURIUM, Strain/Indicator: TA100, Metabolic Activation: RAT, LIVER, S-9, AROCLOR 1254, Method: PREINCUBATION
The mark [11] stands for this setting: Test System: AMES SALMONELLA TYPHIMURIUM, Strain/Indicator: TA1535, Metabolic Activation: HAMSTER, LIVER, S-9, AROCLOR 1254, Method: PREINCUBATION
The mark [12] stands for this setting: Test System: AMES SALMONELLA TYPHIMURIUM, Strain/Indicator: TA1535, Metabolic Activation: NONE, Method: PREINCUBATION
Setting [13] is: Test System: AMES SALMONELLA TYPHIMURIUM, Strain/Indicator: TA1535, Metabolic Activation: RAT, LIVER, S-9, AROCLOR 1254, Method: PREINCUBATION
[14] abbreviates: Test System: AMES SALMONELLA TYPHIMURIUM, Strain/Indicator: TA1537, Metabolic Activation: HAMSTER, LIVER, S-9, AROCLOR 1254, Method: PREINCUBATION
Setting [15] is: Test System: AMES SALMONELLA TYPHIMURIUM, Strain/Indicator: TA1537, Metabolic Activation: NONE, Method: PREINCUBATION
Where [16] appears, read: Test System: AMES SALMONELLA TYPHIMURIUM, Strain/Indicator: TA1537, Metabolic Activation: RAT, LIVER, S-9, AROCLOR 1254, Method: PREINCUBATION
The mark [17] stands for this setting: Test System: MOUSE LYMPHOMA, Strain/Indicator: L5178Y (TK+/TK-), Metabolic Activation: NONE, Method: SUSPENSION/PLATE.

Regarding `Nc1ccc(CCc2ccc(N)cc2)cc1`, the mutagenic call under setting [1] was “inactive; negative”, the mutagenic call under setting [2] was “active; positive”, the mutagenic call under setting [3] was “inactive; negative” and the mutagenic call under setting [4] is “active; positive”.
In the case of `CC(C)(C#N)N=NC(C)(C)C#N`, the mutagenic call runs as follows: under setting [5], “inactive; negative”; under setting [6], “inactive; negative”; (Test System: AMES SALMONELLA TYPHIMURIUM, Strain/Indicator: TA98, Metabolic Activation: RAT LIVER S-9, PHENOBARBITAL AND BETA-NAPHTHOFLAVONE, Method: PREINCUBATION) “inactive; negative”; under setting [7], “inactive; negative”; under setting [8], “inactive; negative”; under setting [9], “inactive; negative”. Also, the mutagenic call runs as follows: (Test System: AMES SALMONELLA TYPHIMURIUM, Strain/Indicator: TA100, Metabolic Activation: RAT LIVER S-9, PHENOBARBITAL AND BETA-NAPHTHOFLAVONE, Method: PREINCUBATION) “inactive; negative”; under setting [10], “inactive; negative”; under setting [11], “inactive; negative”; under setting [12], “inactive; negative”; (Test System: AMES SALMONELLA TYPHIMURIUM, Strain/Indicator: TA1535, Metabolic Activation: RAT LIVER S-9, PHENOBARBITAL AND BETA-NAPHTHOFLAVONE, Method: PREINCUBATION) “inactive; negative”; under setting [13], “inactive; negative”. The mutagenic call under setting [14] is “inactive; negative”; the mutagenic call under setting [15] is “inactive; negative”; the mutagenic call (Test System: AMES SALMONELLA TYPHIMURIUM, Strain/Indicator: TA1537, Metabolic Activation: RAT LIVER S-9, PHENOBARBITAL AND BETA-NAPHTHOFLAVONE, Method: PREINCUBATION) is “inactive; negative”; the mutagenic call under setting [16] was “inactive; negative”; the mutagenic call (Test System: AMES SALMONELLA TYPHIMURIUM, Strain/Indicator: TA1538, Metabolic Activation: HAMSTER, LIVER, S-9, AROCLOR 1254, Method: PREINCUBATION) is “inactive; negative”; the mutagenic call (Test System: AMES SALMONELLA TYPHIMURIUM, Strain/Indicator: TA1538, Metabolic Activation: NONE, Method: PREINCUBATION) was “inactive; negative”. Besides, the mutagenic call (Test System: AMES SALMONELLA TYPHIMURIUM, Strain/Indicator: TA1538, Metabolic Activation: RAT LIVER S-9, PHENOBARBITAL AND BETA-NAPHTHOFLAVONE, Method: PREINCUBATION) is “inactive; negative”; the mutagenic call (Test System: AMES SALMONELLA TYPHIMURIUM, Strain/Indicator: TA1538, Metabolic Activation: RAT, LIVER, S-9, AROCLOR 1254, Method: PREINCUBATION) was “inactive; negative”; the mutagenic call (Test System: E.COLI, Strain/Indicator: WP2UVRA, Metabolic Activation: NONE, Method: PREINCUBATION) is “inactive; negative”; the mutagenic call (Test System: E.COLI, Strain/Indicator: WP2UVRA, Metabolic Activation: RAT LIVER S-9, PHENOBARBITAL AND BETA-NAPHTHOFLAVONE, Method: PREINCUBATION) is “inactive; negative”; the mutagenic call under setting [17] is “inactive; negative. reevaluation of results: negative”; the mutagenic call (Test System: MOUSE LYMPHOMA, Strain/Indicator: L5178Y (TK+/TK-), Metabolic Activation: RAT, LIVER, S-9, AROCLOR 1254, Method: SUSPENSION/PLATE) is “inactive; negative. reevaluation of results: negative”.
For the molecule `CC(I)C1OCC(CO)O1` (centres undefined), the mutagenic call under setting [5] is “inactive; negative”; the mutagenic call under setting [6] was “inactive; negative”; the mutagenic call under setting [7] was “inactive; negative”; the mutagenic call under setting [8] was “active; positive”; the mutagenic call under setting [9] is “active; positive”; the mutagenic call under setting [10] is “active; positive”. Also, the mutagenic call under setting [11] is “active; positive”; the mutagenic call under setting [12] is “active; positive”; the mutagenic call under setting [13] is “active; positive”; the mutagenic call under setting [14] was “inactive; negative”; the mutagenic call under setting [15] was “inactive; negative”; the mutagenic call under setting [16] was “inactive; negative”. In addition, the mutagenic call is “active; positive” under setting [17] and “inactive; negative” (Test System: UDS RAT HEPATOCYTES, Metabolic Activation: NONE, Method: AUTORADIOGRAPHY).
Take `c1ccc2c(c1)CC[C@@H]1CCC[C@@H]3O[C@]213`: the mutagenic call under setting [1] was “inactive; negative” and the mutagenic call under setting [3] is “inactive; negative”.
For `CC(=O)c1cccc(N=Nc2ccc(N)c(C(C)=O)c2C)c1C`, the mutagenic call by setting is: under setting [6], “inactive; negative”; (Test System: AMES SALMONELLA TYPHIMURIUM, Strain/Indicator: TA98, Metabolic Activation: RAT, LIVER, S-9, PHENOBARBITAL AND 5,6-BENZOFLAVONE, Method: PREINCUBATION) “inactive; negative”; under setting [9], “inactive; negative”; (Test System: AMES SALMONELLA TYPHIMURIUM, Strain/Indicator: TA100, Metabolic Activation: RAT, LIVER, S-9, PHENOBARBITAL AND 5,6-BENZOFLAVONE, Method: PREINCUBATION) “inactive; negative”.
As for `O=C1c2ccccc2-c2cccc3cccc1c23`, the mutagenic call under setting [1] is “inactive; negative”, the mutagenic call under setting [2] was “active; positive” and the mutagenic call under setting [4] is “active; positive”.
With `Nc1ccc(/C=C\c2ccc([N+](=O)[O-])cc2)cc1`, the mutagenic call is, setting by setting: (Test System: AMES SALMONELLA TYPHIMURIUM, Strain/Indicator: TA98(1,8-DNP6), Metabolic Activation: NONE, Method: STANDARD PLATE) “inactive; negative”; (Test System: AMES SALMONELLA TYPHIMURIUM, Strain/Indicator: TA98(1,8-DNP6), Metabolic Activation: S-9, Method: STANDARD PLATE) “active; positive”; under setting [1], “active; positive”; under setting [2], “active; positive”; (Test System: AMES SALMONELLA TYPHIMURIUM, Strain/Indicator: TA98, Metabolic Activation: S-9, Method: STANDARD PLATE) “active; positive”; under setting [3], “inactive; negative”. Moreover, the mutagenic call by setting is: under setting [4], “active; positive”; (Test System: AMES SALMONELLA TYPHIMURIUM, Strain/Indicator: TA100, Metabolic Activation: S-9, Method: STANDARD PLATE) “active; positive”.
As to `O=C1c2ccccc2-c2c1ccc1ccccc21`, the mutagenic call under setting [4] was “active; positive”.
Still for that read-out and setting: for `OCc1ccc2c(CO)c3ccc4ccccc4c3nc2c1` the value was “inactive; negative”.
Take `c1ccc(C(c2ccccc2)c2ccccc2)cc1`: the mutagenic call is “inactive; negative” (Test System: AMES SALMONELLA TYPHIMURIUM, Strain/Indicator: TA97, Metabolic Activation: NONE, Method: STANDARD PLATE); “inactive; negative” (Test System: AMES SALMONELLA TYPHIMURIUM, Strain/Indicator: TA97, Metabolic Activation: RAT, LIVER, S-9, AROCLOR 1254, Method: STANDARD PLATE); “inactive; negative” under setting [1]; “inactive; negative” under setting [2]; “inactive; negative” under setting [3]; “inactive; negative” under setting [4]. Besides, the mutagenic call runs as follows: (Test System: AMES SALMONELLA TYPHIMURIUM, Strain/Indicator: TA104, Metabolic Activation: NONE, Method: STANDARD PLATE) “inactive; negative”; (Test System: AMES SALMONELLA TYPHIMURIUM, Strain/Indicator: TA104, Metabolic Activation: RAT, LIVER, S-9, AROCLOR 1254, Method: STANDARD PLATE) “inactive; negative”.
